Entries after “also recorded” stand apart in the source; their conditions may differ.
Assays:
[1] = system: HaCaT cells; test: ECIS cell adhesion assay; type: cell-based, human
From the text: (§1) • 1. Cells and Human keratinocytes and melanoma Cells (HaCaT-from The German Cancer Institute/Cell Service, Germany and A431—from ATCC), human vascular endothelial cell, HECV (from Interlab, Italy) were used. Recombinant human HGF was from the research laboratory. nWASP inhibitors, Wiskostatin and 187-1 were from Merck Pharmaceuticals and TOCRIS, respectively. Tissue collection and preparation of RNA/cDNA bank from human wound/skin tissues. Fresh tissues from abnormal/chronic wounds (n=14), acute wounds (n=10) and normal skin from healthy volunteers (n=10) were collected under an approval from the local ethical committee (Ethical approval ID: 05/WSE03/92) and stored in −80° C. until use. Written informed consent was obtained from each patient who agreed for a biopsy to be taken. Tissues were frozen sectioned on a cryostat (Leica). A portion of the sections were kept for histological analysis. Approximate 20 sections were pooled and homogenised using a hand-held homogenizer using a procedure to extract RNA from the tissues. RNA extracted from the tissues was quantified and cDNA was subsequently generated using a RT kit. Abnormal/chronic wound tissues were from patients with abnormal/chronic leg ulcers. Acute wound tissues were obtained from patients with acute surgical wounds after undergoing excision of pilonidal disease. Normal tissues were from normal volunteer's normal skin. • 2. Analysis of nWASP gene transcripts was carried out using conventional and quantitative real time PCR (Icycler IQ, Bio-Rad) on human wound and skin tissues and cells. […] The study adopted the Ampliflor quantitation technology, in which one set of gene specific primers and a Uniprimer probes were used, in combination with quantitative PCR master mix. […] An internal standard was employed for quantitation purpose. […] The first was recorded immediately after plating of the cells into each well at 3 frequencies: 400 Hz, 4,000 Hz, and 40,000 Hz. […]

[2] = system: HaCaT cells; test: ECIS cell migration assay (electric wounding) and micromotion; type: cell-based, human; conditions: for resistance following wounding (migration): measured at 400 Hz; for cell migration of transfected HaCaT cells: vs wild type HaCaT, electric wounding, ECIS
From the text: • 1. Cells and Human keratinocytes and melanoma Cells (HaCaT-from The German Cancer Institute/Cell Service, Germany and A431—from ATCC), human vascular endothelial cell, HECV (from Interlab, Italy) were used. Recombinant human HGF was from the research laboratory. nWASP inhibitors, Wiskostatin and 187-1 were from Merck Pharmaceuticals and TOCRIS, respectively. Tissue collection and preparation of RNA/cDNA bank from human wound/skin tissues. Fresh tissues from abnormal/chronic wounds (n=14), acute wounds (n=10) and normal skin from healthy volunteers (n=10) were collected under an approval from the local ethical committee (Ethical approval ID: 05/WSE03/92) and stored in −80° C. until use. Written informed consent was obtained from each patient who agreed for a biopsy to be taken. Tissues were frozen sectioned on a cryostat (Leica). A portion of the sections were kept for histological analysis. Approximate 20 sections were pooled and homogenised using a hand-held homogenizer using a procedure to extract RNA from the tissues. RNA extracted from the tissues was quantified and cDNA was subsequently generated using a RT kit. Abnormal/chronic wound tissues were from patients with abnormal/chronic leg ulcers. Acute wound tissues were obtained from patients with acute surgical wounds after undergoing excision of pilonidal disease. Normal tissues were from normal volunteer's normal skin. • 2. Analysis of nWASP gene transcripts was carried out using conventional and quantitative real time PCR (Icycler IQ, Bio-Rad) on human wound and skin tissues and cells. For conventional PCR, primers used were: NWASPF8 (5′agtccctatcactttcctc′3) (SEQ ID NO 1) and NWASPR8 (5′[…]′3) (SEQ ID NO 2) and NWASPF9 (5′[…]′3) (SEQ ID NO 3) and NWASPR9 (5′[…]′3) (SEQ ID NO 4). For Q-PCR primers used were nWASPF1 and NWASPZR1 (5′[…]′3) (SEQ ID NO 5) and (5′[…]′3) (SEQ ID NO 6). • 3. The study adopted the Ampliflor quantitation technology, in which one set of gene specific primers and a Uniprimer probes were used, in combination with quantitative PCR master mix. The reaction was carried out using ICycler^IQ (Bio-Rad). An internal standard was employed for quantitation purpose. In all the assays, GAPDH and actin were amplified and used as the house keeping controls. Levels of a specific gene was normalised to the expression level of GAPDH in the respective sample for example, nWASP, GAPDH and actin transcripts (mRNA) were measure in the same sample. nWASP was then normalised to GAPDH. • 4. Evaluation of cells response to wound stress after n-WASP is targeted. Here, an in vitro cell model, based on the ECIS system, was adopted. Briefly, cells were allowed to sit in the electric arrays and an 8E10 format was used. Cells in fixed number and fixed volume of culture medium were added into each of the respective wells, which had either control medium or a specific inhibitor to N-WASP, namely Wiskostatin or 187-1. In selected wells, a cell migration inducer, HGF was also included in the absence or presence of the nWASP inhibitors. Cells were investigated for the following functions: the adhesiveness to the matrix surface and the migration capacity. The first was recorded immediately after plating of the cells into each well at 3 frequencies: 400 Hz, 4,000 Hz, and 40,000 Hz. The frequencies were chosen following a frequency scanning (FIG. 3). Two main cell functions were thus tested here: the adhesiveness of the cells to matrix and cell migration. • 5. Creation of cell models. We have created a new cell model, based on a human keratinocyte cell line, HaCaT, which expressed high levels of n-WASP. By using anti-nWASP transgenes, we successfully knocked out the expression of n-WASP from the cells and subsequently used the cells in our testing. Briefly, the secondary structure (FIG. 2) of human nWASP was generated using Zuker's RNA mFold software. Three suitable sites for targeting within the nWASP mRNA were identified. […]

[3] = system: HaCaT cells; test: growth of HaCaT cells; type: cell-based, human
[4] = system: HECV cells; test: endothelial tubule forming assay, HECV wild type (negative for nWASP); type: cell-based, human; conditions: HECV cells negative for nWASP expression
[5] = in vivo tolerance test in CD-1 athymic mice; conditions: intraperitoneal, daily, 1 and 10 uM, two weeks
Procedure: (§2) First, the main tolerance tests were conducted using the CD-1 athymic mice (Charles River Laboratories), owing to their slow and steady rate of growth and easier to observe changes in the skin (hairless) and other possible side effects. Briefly, CD-1 of 4-6 weeks old, 20 g in weight, were housed in filter topped cages. […] Both compounds were given at […] final concentration in 100 ul in volume. […] CD-1 were observed daily, weighed twice weekly. An additional tolerance and efficacy test was carried out using the db/db strain.

[6] = tolerance in db/db strain; type: in vivo, db/db mice; conditions: administered systemically (IP), efficacy study
Procedure: as §2
(§3) The diabetic strain of db/db was obtained from Harlan. 4-6 weeks old with body weight at 20 g were used. […] Briefly, after being housed for a week, the db/db mice were first ear-pieced using an ear puncher, in order to create a wound (hole) of 1 mm in diameter. The following day after wound creation, all the db/db were weighed, wound photographed using a digital camera. Treatment was given systemically (by IP injection) or topically (by manually applying the compounds in gel into the wound area). Both treatments were given every other day. Images were obtained weekly. The size of the wounds was determined using an image analysis software. Data are given in two ways:
Wiskostatin was first dissolved in DMSO at concentration of 5 mg/ml. The DMSO solution was then gradually diluted in BSS in order to avoid precipitation. […]

[7] = system: wound in db/db mice; test: in vivo efficacy test, wound healing (ear punch wound); conditions: for size of wounds vs control: after three weeks
From the text: as §3
1. the area of the wounds in pixels. Two sample student t test was used for statistical analysis. 2. change of the size of wound over the starting point calculated using: (area at a given point—area at the starting point)/(area of the starting point)×100. Bonferroni model was used for data analysis.
Wiskostatin was first dissolved in DMSO at concentration of 5 mg/ml. The DMSO solution was then gradually diluted in BSS in order to avoid precipitation. The solutions were prepared such that each 100 ul contained the correct amount of compounds and was aliquatted and stored at −20° C. until used. The compounds were injected every other day by the IP route. […] Treatment was given every other working day (Monday, Wednesday and Friday) and the images obtained on Wednesday.
For topical application, we used two conventional carrier gels (purchased from Pharmacy of University Hospital of Wales) that are currently used in wound care. […] For use, a small amount (150 ul) of the gel was applied to the wound area and gently rubbed in using fingers. Treatment was given every other working day (Monday, Wednesday and Friday) and the images obtained on Wednesday.

[8] = system: HECV cells transfected and forced to express nWASP; test: endothelial tubule forming assay, HECV forced to express nWASP; type: cell-based, human; conditions: nWASP expressing HECV cells, after 48 hours
[9] = system: nWASP mRNA; test: knock down of nWASP mRNA in HaCaT cells by anti-nWASP transgenes (RT-PCR); type: cell-based, human; conditions: HaCaT cells after transfection (electroporation)
From the text: as §1, with “Written informed consent was obtained from each patient who agreed for a biopsy to be taken. Tissues were frozen sectioned on a cryostat (Leica). A portion of the sections were kept for histological analysis. Approximate 20 sections were pooled and homogenised using a hand-held homogenizer using a procedure to extract RNA from the tissues.” left out, “Abnormal/chronic wound tissues were from patients with abnormal/chronic leg ulcers. Acute wound tissues were obtained from patients with acute surgical wounds after undergoing excision of pilonidal disease. Normal tissues were from normal volunteer's normal skin. • 2.” left out

With `CN(C)C[C@H](O)Cn1c2ccc(Br)cc2c2cc(Br)ccc21` (racemic) [Wiskostatin] the “adhesiveness of HaCaT cells to matrix surface” value ([1]; Wiskostatin 1, 10, 100 nM, 400, 4,000, 40,000 Hz, particularly at 40,000 Hz) was “increased the adhesiveness”, the “HGF-induced adhesiveness of HaCaT cells” value ([1]; with HGF 40 ng/ml, Wiskostatin 1, 10, 100 nM) was “further increased the adhesiveness” and the “resistance following wounding (migration)” value ([2]; 1 nM) was “rapid rise of resistance”. The “resistance following wounding (migration)” value ([2]; 10 nM) was “rapid rise of resistance”, the “migration of HaCaT cells” value ([2]; electric wounding assay) was “Increased the Migration” and the “growth of HaCaT cells” value [3] was “limited inhibitory effect on the growth and only at a high concentration”. For the same molecule, the “effective concentrations relative to those causing toxicity and growth changes” value ([3]; all effects on cell functions) was “far below those that may cause toxicity and growth changes”, the tubule formation [4] was “neither 187-1 nor Wiskostatin had a major impact” and the tolerability [5] was “Well Tolerated”. The side effects [6] was “without Producing any Side Effects”, the “size of wounds vs control” value ([7]; Wiskostatin systemic 1 μM, p=0.017) was “significantly reduced the size of the wounds; also recorded: significant reduction of the size of wound” and the “size of wounds vs control” value ([7]; Wiskostatin systemic 10 μM, p=0.04) was “significantly reduced the size of the wounds; also recorded: significant reduction of the size of wound”. For the same molecule, the “size of wounds vs control” value ([7]; Wiskostatin topical-A gel, p=0.044) was “significant effect”, the “size of wounds vs control” value ([7]; Wiskostatin topical-B gel, p=0.044) was “significant effect” and the wound healing ([7]; administered systemically (IP), every other day) was “Significantly Accelerated Wound Healing”. For the same molecule, the wound healing ([7]; administered topically in gel) was “Significant Effect”.

With “HGF: recombinant human HGF, cell migration inducer / positive control” the “adhesiveness of HaCaT cells” value ([1]; HGF 40 ng/ml alone vs control cells) was “increased the adhesiveness”, the “migration of control HaCaT cells” value ([2]; HGF 40 ng/ml) was “increased the migration of control HaCaT cells” and the “migration of nWASP transgene carrying HaCaT cells” value ([2]; HGF 40 ng/ml) was “some limited effect”.

With Wiskostatin the tubule forming [8] was “strong stimulatory effect on tubule forming”.

B1: transgene-2: anti-nWASP antisense-hammerhead ribozyme/RNA transgene, SEQ ID NO 18, cloned into pEF6/V5/His TOPO (nucleic acid, listed as Homo sapiens)
DNA: CTGCAGACAAGCAACACCACTGCACTTCTTTCTGATGAGTCCGTGAGGACGAAACCACATACAGTTCCGATCTGCTGCATATAACTAGT
With B1 the “knocking down nWASP mRNA/transcript” value [9] was “active in knocking down; also recorded: highly active” and the “cell migration of transfected HaCaT cells” value [2] was “dramatic increase in cell migration”.

B2: transgene-3: anti-nWASP antisense-hammerhead ribozyme/RNA transgene, SEQ ID NO 19, cloned into pEF6/V5/His TOPO (nucleic acid, listed as Homo sapiens)
DNA: CTGCAGGTGCAGCTGTGGGAGCTCTTCTGATGAGTCCGTGAGGACGAAAAGGTGGTGGGGGAGGAGCGCCTCTTCCCCTAGCCTAGT
In the case of B2, the “cell migration of transfected HaCaT cells” value [2] is reported as “dramatic increase in cell migration”.

B3: transgene-1: anti-nWASP antisense-hammerhead ribozyme/RNA transgene, SEQ ID NO 17, cloned into pEF6/V5/His TOPO (nucleic acid, listed as Homo sapiens)
DNA: CTGCAGGAGTTCTTTGACCACATACAGTTCCCTGATGAGTCCGTGAGGACGAAATCTGCTGCATATAACTGCACCACACTAGT
In the case of B3, the “knocking down nWASP mRNA/transcript” value [9] is reported as “active in knocking down”.
